Here are results for 2 compounds from publication PMC7828231, “Delphinidin Increases the Sensitivity of Ovarian Cancer Cell Lines to 3-bromopyruvate” (International Journal of Molecular Sciences, 2021).

What is called IC50 is the concentration that inhibits the measured activity by half.

The subject of experiment [1] is MRC-5 fibroblasts. Briefly: ATP level (CellTiter-Glo). In kind it is cell-based, human. Particulars: 25-µM D, 40 µM 3-BP, 24 h. As to the method:
(§1) To determine the ATP level in the cells, the CellTiter-Glo® Luminescent Cell Viability Assay (Promega) was used. This method is based on the ATP-dependent conversion of luciferin to the luminescent oxyluciferin. Briefly, cells were seeded in a white/clear bottom 96-well plate with a density of 1 × 10^4/well (SKOV3 and PEO1) or 7.5 × 10^3/well (MRC-5). After 24-h incubation, the cells were treated with 25-µM D, a IC50 concentration of 3-BP (SKOV3 and MRC-5: 40 µM and PEO1: 20 µM) and both compounds simultaneously. The ATP level was determined after 24-h exposure to the tested compounds. The plate was equilibrated at room temperature for approximately 25 minutes. Next, 100 µL of the CellTiter-Glo® Reagent was added to each well, and the plate was shaken for 2 minutes. Then, the plate was left at room temperature for 10 minutes, and the luminescence was measured in a Spark multimode microplate reader (Tecan Group LTD., Männedorf, Switzerland).
A general note: Cellular ATP, detected with luciferase, serves as a proxy for viable cell number.

For experiment [2], the system named is PEO1 cells. Description: ATP level (CellTiter-Glo). In kind it is cell-based, human. Particulars: 25-µM D, 20 µM 3-BP, 24 h. As to the method:
as §1

For experiment [3], the system named is SKOV3 cells. Description: ATP level (CellTiter-Glo). Format: cell-based, human. Particulars: 25-µM D, 40 µM 3-BP, 24 h. As to the method: as §1
The subject of experiment [4] is MRC-5 fibroblasts. Description: GSH content (OPA). Particulars: 25-µM D, 40 µM 3-BP, 24 h. Format: cell-based, human. As to the method:
(§2) The content of reduced glutathione was assayed with OPA [63]. Briefly, the cells were seeded in wells of a transparent 96-well plate at a density of 7.5 × 10^3/well (MRC-5) or 1 × 10^4/well (cancer cells) and allowed to attach at 37 °C for 24 h. After 24-h treatment with the tested compounds, the medium was removed, the cells were washed with PBS (150 µL per well) and then added with 60 µL/well of cold redox quenching buffer (RQB) containing 20-mM HCl, 5% TCA, 5-mM DTPA and 10-mM L-ascorbic acid. The plate was shaken for 5 minutes and centrifuged for 5 minutes at 4000 rpm. Next, the supernatant was transferred into two 96-well black plates (“+NEM” and “–NEM”; 25 µL/well). Within the “+NEM” plate, 4 µL/well of freshly prepared 7.5-mM NEM in cold RQB buffer was added. Then, 1-M phosphate buffer (pH 7.0) was added into both plates (40 µL/well), and the plates were shaken for 5 min at 700 rpm. Finally, 160 µL/well of cold 0.1-M phosphate buffer (pH 6.8) and 25 µL/well of freshly prepared 0.5% OPA in methanol were added into both plates. Both plates were incubated for 30 minutes at room temperature with constant shaking. Fluorescence was then measured at 355/430 nm. The protein contents in the cell lysates were determined according to Lowry et al.. The concentration of reduced glutathione was determined by subtracting […] and calculated with respect to the protein content.

Experiment [5] concerns PEO1 cells. Briefly: GSH content (OPA). In kind it is cell-based, human. Particulars: 25-µM D, 20 µM 3-BP, 24 h. As to the method:
as §2

Experiment [6] has as its system SKOV3 cells. Briefly: GSH content (OPA). In kind it is cell-based, human. Particulars: 25-µM D, 40 µM 3-BP, 24 h. How it is done:
as §2

For experiment [7], the system named is MRC-5 fibroblasts. Description: Level of reactive oxygen species (DHE, DCFDA). In kind it is cell-based, human. Particulars: 25-µM D, 40 µM 3-BP, 24 h. How it is done: (§3) The level of ROS in the MRC-5, SKOV3 and PEO1 cells after 24-h exposure to delphinidin chloride and 3-BP was assayed with 2′,7′-dichlorofluorescein diacetate (DCFDA) and dihydroethidium (DHE). Briefly, cells were seeded in a black 96-well flat clear-bottom plate at a density of 7.5 × 10^3/well for MRC-5 fibroblasts and 1 × 10^4 /well for cancer cells and allowed to attach at 37 °C for 24 h. After 24-h incubation, the medium was removed and replaced with a medium containing the examined substances at concentrations given previously. After incubation, the medium was removed and replaced by a 10-µM fluorescent probe (DHE or DCFDA) (100 µL/well). Stock solutions of the probes were prepared in DMSO, and working solutions were prepared in PBS. Fluorescence was measured at 490/529 nm (DCFDA) and 475/579 nm (DHE) for 2 h at 37 °C in 1-min intervals.

Experiment [8] relates to PEO1 cells. Description: Level of reactive oxygen species (DHE, DCFDA). In kind it is cell-based, human. Particulars: 25-µM D, 20 µM 3-BP, 24 h. How it is done:
as §3

Experiment [9] concerns SKOV3 cells. Description: Level of reactive oxygen species (DHE, DCFDA). In kind it is cell-based, human. Particulars: 25-µM D, 40 µM 3-BP, 24 h. How it is done: as §3
Experiment [10] has as its system SKOV3 cells. Briefly: Cell migration (scraped area closure). In kind it is cell-based, human. As to the method: Ovarian cancer cells and human normal fibroblasts were seeded on a 24-well plate at a density of 7 × 10^4/well (PEO1), 6.5 × 10^4/well (SKOV3) and 6 × 10^4/well (MRC-5) in 700 µL of appropriate cell medium and cultured at 37 °C to reach 90–95% confluence. Then, the cells in the middle of the wells were scraped off using sterile pipette tips (100 µL), cell debris was removed by washing with medium containing 2% FBS and the tested compounds diluted with medium containing 2% FBS were added. Images of the scraped area were collected after 12 h and 24 h at 10× objective magnification using an Olympus CKX53 microscope with a U-TV0. 5XC-3 digital microscope camera. The obtained results were analyzed using ImageJ software. The percentage of scraped area closure was estimated as the ratio of area measured after 12- or 24-h incubation and the area at the beginning of the experiment.

The test system of experiment [11] is SKOV3 cells. Description: Apoptosis and necrosis assay (RealTime-Glo Annexin V). Format: cell-based, human. Particulars: after 24 h. As to the method:
The levels of apoptosis and necrosis were assayed using the RealTime-Glo™ Annexin V Apoptosis and Necrosis Assay. Cells were seeded into a white 96-well plate with optical bottom, cultured and treated adequately, as stated above. After 24 h, 100 μL of the freshly prepared reagent was added to each well according to the manufacturer’s protocols. The fluorescence and luminescence were measured according to the protocols.

Another experiment has as its system Caco-2 cells. Also noted: method as in PMID 15016660. Particulars: Caco-2, 100–200 µM; cited from earlier work.
A further experiment deals with HeLa cells. Also noted: method as in PMID 15016660. Particulars: 100–200 µM; cited from earlier work.
Another experiment deals with HCT-116 cells. More on the design: method as in PMID 15680311. Particulars: HCT-116, 50–200 µM; cited from earlier work.
A further experiment has as its system HCT116 cells. More on the design: method as in PMID 18729103. Particulars: cited from earlier work.
In another experiment the target is glyoxalase I. More on the design: method as in PMID 20801663. Particulars: read-out: IC50 for glyoxalase I inhibition; cited from earlier work.
In another experiment the test system is four OC cell lines. More on the design: method as in PMID 26259240. Particulars: cited from earlier work.

Turning to `Oc1cc(O)c2cc(O)c(-c3cc(O)c(O)c(O)c3)[o+]c2c1` [Delphinidin chloride, 3,3′,4′,5,5′,7-hexahydroxyflavylium], the ATP content entry with MRC-5 fibroblasts [1] is “not affected”; in the experiment with PEO1 cells [2], “did not change”; in the experiment on SKOV3 cells [3], “neither 3-BP nor D affected”. The GSH level result with MRC-5 fibroblasts [4] is reported as “neither 3-BP or D alone modified”; in the experiment on PEO1 cells [5] it was “did not affect”; in the experiment with SKOV3 cells [6], “without effect”. Besides, the entries for the “level of DCFDA-reactive ROS” value with MRC-5 fibroblasts [7], in the experiment on PEO1 cells [8] and in the experiment on SKOV3 cells [9] were “not affected”, “increased” and “not affected”, respectively. Further, the “level of DHE-detectable ROS” value is “decreased” with MRC-5 fibroblasts [7] and “increased” in the experiment on PEO1 cells [8]. Moreover, in the experiment with SKOV3 cells [10], the cell migration entry is reported as “decreased”. Further, the induction of apoptosis result in the experiment on SKOV3 cells [11] is reported as “induced apoptosis”. Further, the viability entry with Caco-2 cells is listed as “decreased the viability”; with HeLa cells it was “decreased the viability”; in the experiment with HCT-116 cells, “did not affect significantly the viability”. In addition, the 50% inhibitory concentration (IC50) in the experiment with HCT116 cells was 110 µM; at glyoxalase I, 1.9 µM.

Take `O=C(O)C(=O)CBr` [3-BP, 3-bromopyruvic acid]: the ATP content result with MRC-5 fibroblasts [1] is given as “not affected”; in the experiment on PEO1 cells [2], “decrease”; in the experiment with SKOV3 cells [3], “neither 3-BP nor D affected”. Moreover, the GSH level entry with MRC-5 fibroblasts [4] is recorded as “neither 3-BP or D alone modified”; with PEO1 cells [5], “decreased”; in the experiment on SKOV3 cells [6], “increased”. The “level of DCFDA-reactive ROS” value is reported as “not affected” with MRC-5 fibroblasts [7], “increased” in the experiment on PEO1 cells [8] and “not affected” with SKOV3 cells [9]. The “level of DHE-detectable ROS” value in the experiment on MRC-5 fibroblasts [7] is listed as “decreased”; with PEO1 cells [8] it was “decreased”; with SKOV3 cells [9], “not affecting”. For the same compound, the cell migration result with SKOV3 cells [10] was “decreased”. Further, the IC50 in the experiment with four OC cell lines was 16 to 84 µM.
